# Reference: patent US20260262641A1 (priority 2023, published 2026)
# Key:
# [1] = test system: redlegged earth mite (H. destructor; RLEM); assay: whole plant or invertebrate; conditions: for LC50: read-out: LC50 (95% CI)
# Method: On the 14th of May 2022, H. destructor were collected from capeweed (Arctotheca calendula) in South Morang, Victoria (−37.625, 145.110), a site with no known history of insecticide application. Mites were collected via suction using a Stihl SH55 blower vacuum, placed in plastic containers with paper towel and vegetation, and transported back to the laboratory, where they were stored at 4° C. until testing.
# Serial dilutions were prepared for each insecticide (Table 1), with the addition of a non-ionic surfactant (Tween 20) at 0.01% to aid the spread of the insecticide and ensure even coating. […] Nine concentrations of pyridaben ranging from the proposed field rate of 1480 mL diluted in 100 L of water (1998 mg a.i./L) to 1×10^−5 were serially diluted and tested along with a water control. Eight concentrations of omethoate, ranging from 10 times the field rate of 100 mL diluted in 100 L of water (290 mg a.i./L) to 1×10^−5, were tested along with a water control. Seven concentrations of bifenthrin, ranging from 10 times the field rate of 40 mL diluted in 100 L of water (100 mg a.i./L) to 1×10^−5, were tested along with a water control. For each insecticide concentration tested, approximately 10 mL of solution was poured into a 15 mL plastic vial and swirled to ensure a complete coating, with excess liquid removed. Six vials were coated per concentration and were left to dry overnight. Control vials were treated in the same way, except water (with the addition of 0.01% Tween) was used.
# (§1) Approximately eight individual H. destructor were then placed into each vial along with 2-3 leaves of common vetch (Vicia sativa), which provided food and humidity. Vials were then sealed with a screw lid and placed in a controlled temperature cabinet at 18° C. After 24-hours exposure, mites were scored as alive (moving freely), incapacitated (inhibited movement), or dead (no movement over a 5 second period).
# Dose-response curves were generated by plotting percentage mortality against log concentration. […] Logistic regression is well suited for the analysis of binary response data (e.g., dead/alive). All analyses were conducted using R version 3.3.1 (R Development Core Team 2022).
# [2] = test system: insecticide-resistant population of redlegged earth mite (H. destructor; RLEM); assay: whole plant or invertebrate; conditions: for LC50: read-out: LC50 (95% CI); for difference between insecticide-susceptible and resistant populations in response (in words): P < 0.05 level
# Method: (§2) The insecticide-susceptible H. destructor population tested in this bioassay was collected from burr medic (Medicago polymorpha) and barley grass (Hordeum leporinum) in Moulamein, NSW (−35.102, 144.026), a site with no known history of insecticide application. […] Mites were collected via suction using a Stihl SH55 blower vacuum, placed in plastic containers with paper towel and vegetation, and transported back to the laboratory, where they were stored at 4° C. until testing.
# (§3) Serial dilutions were prepared for each insecticide (Table 9), with the addition of a non-ionic surfactant (Tween 20) at 0.01% to aid the spread of the insecticide and ensure even coating. […] Nine concentrations of bifenthrin were tested, ranging from 1×10^−5 to 10 times the field rate of 40 mL diluted in 100 L of water (100 mg a.i./L). Seven concentrations of omethoate were tested, ranging from 1×10^−5 to 10 times the field rate of 100 mL in 100 L of water (290 mg a.i./L).
# as §1, with “Six vials were coated per concentration and were left to dry overnight. Control vials were treated in the same way, except water (with the addition of 0.01% Tween) was used. The next day,” for “Approximately”
# (§4) Dose-response curves were generated by plotting percentage mortality against log concentration. A series of logistic models were used to quantify the sensitivity of H. destructor to each chemical and to test whether any differences in sensitivity were present between the two populations. Logistic regression is well suited for the analysis of binary response data (e.g., dead/alive). Each model included chemical concentration and H. destructor population as fixed-effect predictors, which allowed testing for whether populations had average differences in mortality (i.e., model intercept) via F tests. It was then determined if populations had differences in mortality that were dependent on chemical concentration (i.e., differences in regression slopes) by comparing the inclusion of a population×concentration predictor (i.e., allowing slopes to vary between populations). […] The resulting LC50 values were used to quantify the level of insecticide resistance (resistance ratios) relative to the known insecticide-susceptible population. All analyses were conducted using R version 4.3.1 (R Development Core Team 2023).
# [3] = test system: insecticide-susceptible population of redlegged earth mite (H. destructor; RLEM); assay: whole plant or invertebrate; conditions: Halotydeus destructor, 24 h; for LC50: read-out: LC50 (95% CI)
# Method: as §2, §3
# as §1, with “Six vials were coated per concentration and were left to dry overnight. Control vials were treated in the same way, except water (with the addition of 0.01% Tween) was used. The next day,” for “Approximately”
# as §4
# [4] = test system: redlegged earth mite (H. destructor; RLEM); assay: Field trial in canola, pre- or post-emergent control of RLEM (Example 5); format: in vivo, Halotydeus destructor; conditions: application timing B (early post-emergent, 1 to 2 leaf canola)
# Method: A field trial was conducted in canola cv. Garrison, to evaluate fenpyroximate for control of redlegged earth mite (H. destructor; RLEM) as a pre- or post-emergent application. The trial was located at Beverley, Western Australia (−32.2248085, 117.0268493). The canola was sown on 13th June 2023. […] All treatments were applied using a hand boom fitted with flat fan nozzles in a spray volume of 100 L/ha.
# The density of RLEM was assessed 33 days after the second application timing by counting the number of mites per plant.
# (§5) All data was statistically analyzed using analysis of variance and Fisher's protected least significant different test (Fishers LSD). The level of significance for all tests was P<0.05.
# [5] = test system: couch mite (Aceria cynodoniensis); assay: Field trial in Santa Ana couch turfgrass, control of couch mite (Example 3); format: in vivo; conditions: for Biomass and vigor (0-10), 42 DAA2 / Biomass and vigor (0-10), Pre-spray: 0 to 10 rating scale; for Biomass and vigor (0-10), 42 DAA2 / NDVI, 42 DAA2 / % Incidence mite damage, 42 DAA2: product rate mL/ha: Prophesy 500, Thumper 2000 (+ BS 1000 0.25% v/v); for Biomass and vigor (0-10), 42 DAA2 / NDVI, 42 DAA2: Fenpyroximate 50 SC 4000; for NDVI, 42 DAA2 / NDVI, Pre-spray: Greenseeker; for % Incidence mite damage, 42 DAA2: 42 days after second application, Fenpyroximate 50 SC 4000 (200 g ai/ha); for Biomass and vigor (0-10), Pre-spray / NDVI, Pre-spray / % Incidence mite damage, Pre-spray: Pre-spray (baseline); for % Incidence mite damage, Pre-spray: witches' broom
# Method: A field trial was conducted in Santa Ana couch turfgrass, to evaluate fenpyroximate for control of couch mite (Aceria cynodoniensis). The trial was located at Terrey Hills Golf and Country Club, New South Wales (−33.668, 151.217). […] All treatments were applied using a hand boom fitted with XR11004 nozzles and in a spray volume of 430 L/ha.
# The incidence of couch mite damage, to the terminal growth point (known as witches' broom) was assessed 42 days after the second application. Turf biomass and vigor were assessed at the same timing on a 0 to 10 rating scale, along with NDVI using a Greenseeker.
# as §5
# [6] = Halotydeus destructor, 24 h, read-out: % RLEM mortality
# [7] = Halotydeus destructor, 24 h, read-out: % RLEM mortality, Resistant
# [8] = read-out: % RLEM mortality, Susceptible
compound,measurement,setting,value
Cc1c(COC(=O)[C@@H]2[C@H](/C=C(\Cl)C(F)(F)F)C2(C)C)cccc1-c1ccccc1 (racemic) [Bifenthrin],mortality at 0.001 µg/mL,[1]; [6],0%
same,mortality at 0.01 µg/mL,[1]; [6],0%
same,mortality at 0.1 µg/mL,[1]; [6],64.9%
same,mortality at 0.3 µg/mL,[1]; [6],98.7%
same,mortality at 1 µg/mL,[1]; [6],100%
same,mortality at 10 µg/mL,[1]; [6],100%
same,mortality at 100 µg/mL,[1]; [6],100%
same,LC50,"[1]; Halotydeus destructor, 24 h",0.085 µg/mL
same,Resistance ratio,[2],265.09
same,mortality at 0.001 µg/mL,[2]; [7],4.4%
same,mortality at 0.01 µg/mL,[2]; [7],9.3%
same,mortality at 0.03 µg/mL,[2]; [7],5.8%
same,mortality at 0.1 µg/mL,[2]; [7],22.3%
same,mortality at 0.3 µg/mL,[2]; [7],44.6%
same,mortality at 1 µg/mL,[2]; [7],48.9%
same,mortality at 10 µg/mL,[2]; [7],70.9%
same,mortality at 100 µg/mL,[2]; [7],59%
same,mortality at 1000 µg/mL,[2]; [7],53.5%
same,LC50,"[2]; Halotydeus destructor, 24 h",14.1 µg/mL
same,difference between insecticide-susceptible and resistant populations in response (in words),[2],significant difference
same,mortality at 0.001 µg/mL,[3]; [8],7%
same,mortality at 0.01 µg/mL,[3]; [8],4.7%
same,mortality at 0.03 µg/mL,[3]; [8],17.4%
same,mortality at 0.1 µg/mL,[3]; [8],74.3%
same,mortality at 0.3 µg/mL,[3]; [8],98.1%
same,mortality at 1 µg/mL,[3]; [8],100%
same,mortality at 10 µg/mL,[3]; [8],100%
same,mortality at 100 µg/mL,[3]; [8],100%
same,mortality at 1000 µg/mL,[3]; [8],100%
same,LC50,[3],0.053 µg/mL
CC(C)c1cc(Oc2ccccc2)cc(C(C)C)c1NC(=S)NC(C)(C)C [Diafenthiuron],mortality at 0.03 µg/mL,[2]; [7],3.9%
same,mortality at 0.3 µg/mL,[2]; [7],10.6%
same,mortality at 3 µg/mL,[2]; [7],13.2%
same,mortality at 30 µg/mL,[2]; [7],15.7%
same,mortality at 300 µg/mL,[2]; [7],39.5%
same,mortality at 3000 µg/mL,[2]; [7],75.5%
same,mortality at 30000 µg/mL,[2]; [7],100%
same,mortality at 90000 µg/mL,[2]; [7],100%
same,difference between insecticide-susceptible and resistant populations in response (in words),[2],significant population differences
same,mortality at 0.03 µg/mL,[3]; [8],13.9%
same,mortality at 0.3 µg/mL,[3]; [8],15.6%
same,mortality at 3 µg/mL,[3]; [8],13%
same,mortality at 30 µg/mL,[3]; [8],21.5%
same,mortality at 300 µg/mL,[3]; [8],64.1%
same,mortality at 3000 µg/mL,[3]; [8],100%
same,mortality at 30000 µg/mL,[3]; [8],100%
same,mortality at 90000 µg/mL,[3]; [8],100%
same,% Control (33 DAA2),[4]; product rate 400 mL/ha,54%
CNC(=O)CSP(=O)(OC)OC [Omethoate],mortality at 0.003 µg/mL,[1]; [6],0%
same,mortality at 0.03 µg/mL,[1]; [6],2.8%
same,mortality at 0.3 µg/mL,[1]; [6],11.7%
same,mortality at 0.9 µg/mL,[1]; [6],55.3%
same,mortality at 2.9 µg/mL,[1]; [6],98.1%
same,mortality at 29 µg/mL,[1]; [6],100%
same,mortality at 290 µg/mL,[1]; [6],100%
same,mortality at 2900 µg/mL,[1]; [6],100%
same,LC50,"[1]; Halotydeus destructor, 24 h",0.681 µg/mL
same,mortality at 0.0029 µg/mL,[2]; [7],16.1%
same,mortality at 0.029 µg/mL,[2]; [7],18.9%
same,mortality at 0.29 µg/mL,[2]; [7],17.2%
same,mortality at 2.9 µg/mL,[2]; [7],47.5%
same,mortality at 29 µg/mL,[2]; [7],100%
same,mortality at 290 µg/mL,[2]; [7],100%
same,mortality at 2900 µg/mL,[2]; [7],100%
same,LC50,"[2]; Halotydeus destructor, 24 h",0.935 µg/mL
same,difference between insecticide-susceptible and resistant populations in response (in words),[2],no statistically significant difference
same,mortality at 0.0029 µg/mL,[3]; [8],7.6%
same,mortality at 0.029 µg/mL,[3]; [8],10.1%
same,mortality at 0.29 µg/mL,[3]; [8],32.1%
same,mortality at 2.9 µg/mL,[3]; [8],95.8%
same,mortality at 29 µg/mL,[3]; [8],100%
same,mortality at 290 µg/mL,[3]; [8],100%
same,mortality at 2900 µg/mL,[3]; [8],100%
same,LC50,[3],0.348 µg/mL
same,% Control (33 DAA2),[4]; product rate 100 mL/ha,74%
"Clc1ccccc1-c1nnc(-c2ccccc2Cl)nn1 [Prophesy, Clofentezine]","Biomass and vigor (0-10), 42 DAA2",[5],4.9
same,"NDVI, 42 DAA2",[5],0.64
same,"% Incidence mite damage, 42 DAA2",[5],52.0%
same,"Biomass and vigor (0-10), Pre-spray",[5],4.0 a
same,"NDVI, Pre-spray",[5],0.53 a
same,"% Incidence mite damage, Pre-spray",[5],94.0 a %
same,turf biomass and vigor and NDVI (in words),"[5]; versus untreated, P<0.05",also improved
CC(C)(C)c1ccc(CSc2cnn(C(C)(C)C)c(=O)c2Cl)cc1 [Pyridaben],mortality even at the highest rates,"[1]; 24 hours exposure, highest rates tested",less than 50%
same,mortality at 0.02 µg/mL,[1]; [6],0%
same,mortality at 0.2 µg/mL,[1]; [6],0%
same,mortality at 2 µg/mL,[1]; [6],0%
same,mortality at 20 µg/mL,[1]; [6],0%
same,mortality at 60 µg/mL,[1]; [6],0%
same,mortality at 200 µg/mL,[1]; [6],9%
same,mortality at 599 µg/mL,[1]; [6],23.4%
same,mortality at 999 µg/mL,[1]; [6],45.5%
same,mortality at 1998 µg/mL,[1]; [6],27.5%
same,efficacy against RLEM (in words),"[1]; laboratory bioassay, 24 hours exposure",not efficacious
same,highest mortality observed,[1]; range of concentrations tested 0.01998-1998 mg a.i./L,45%
Abamectin [Thumper],"Biomass and vigor (0-10), 42 DAA2",[5],4.4
same,"NDVI, 42 DAA2",[5],0.58
same,"% Incidence mite damage, 42 DAA2",[5],57.0%
same,"Biomass and vigor (0-10), Pre-spray",[5],3.9 a
same,"NDVI, Pre-spray",[5],0.52 a
same,"% Incidence mite damage, Pre-spray",[5],95.3 a %
